Our source for the GI50 and TGI values is PubChem BioAssay (NCI).

What all share (experiment): DTP human tumour cell line panel, 48 h
In assay [1] the test system is T-47D breast.
Assay [2] deals with MDA-MB-231 breast.
The subject of assay [3] is DLD-1 colon.
In assay [4] the test system is XF 498 CNS.
Assay [5] concerns M19-MEL melanoma.
Assay [6] relates to HOP-18 NSCLC.
Assay [7] deals with MDA-N.
The test system of assay [8] is SNB-78 CNS.

Each structure is given as a SMILES string.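 96-well plates; 48 h exposure; 5 concentrations. Endpoints by linear interpolation between flanking doses. Not reached: highest tested concentration assigned. At the GI50, growth is halved. TGI denotes the concentration required for complete inhibition of growth.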 Some results are limits rather than exact numbers.

The term GI50 denotes the concentration giving 50% growth inhibition. For orientation: TGI means the concentration at which net growth stops. Read a high TGI as less potent growth arrest. Regarding `Oc1c(O)c(Cl)c(Cl)c(Cl)c1Cl`, the GI50 was 3.26 µM in assay [1] and 5.1 µM in assay [2]. In addition, the concentration for total growth inhibition (TGI) in assay [1] is 11.3 µM; in assay [2], 38.5 µM.

As to `CCC[CH2][Sn]([CH2]CCC)([O]C(=O)c1cccc(F)c1F)[O]C(=O)c1cccc(F)c1F`, the GI50 in assay [3] was 0.653 µM; in assay [4] it was 1.61 µM; in assay [5] it was 0.436 µM; in assay [6] it was 2.17 µM. In addition, the total growth inhibition concentration (TGI) in assay [3] is 1.94 µM; in assay [4] it was 2.97 µM; in assay [5], 1.57 µM; in assay [6] it was 3.61 µM.

`CCOC(=O)C#Cc1c(C(=O)OCC)nnn1[C@@H]1O[C@H](CO)[C@H]2OC3(CCCCC3)O[C@H]21`: the GI50 in assay [1] was 2.21 µM; in assay [2] it was 2.97 µM. In addition, the TGI in assay [1] is 5.47 µM; in assay [2] it was 8.79 µM.

Regarding `C[C@H](NC(=O)c1c(C(F)F)nn(C)c1Oc1cccc(C(F)(F)F)c1)c1ccc(C(=O)O)cc1`, in assay [1], the GI50 is above 100 µM and the TGI was above 100 µM. Moreover, in assay [2], the GI50 was above 100 µM and the concentration for total growth inhibition (TGI) is above 100 µM.

On to `O=C(Oc1ccccc1)C(Br)C(Br)c1ccccc1` (stereo not given), for which, in assay [1], the GI50 was 2.62 µM and the TGI was determined as 6.23 µM. For the same compound, in assay [2], the GI50 is 14.4 µM and the concentration for total growth inhibition (TGI) worked out at 29.6 µM.

For the compound `Nc1nc2c(ccc3ccccc32)s1`, the figures for the GI50 in assay [1] and in assay [2] were 95.5 µM and above 100 µM, respectively. For the same compound, the TGI in assay [1] and in assay [2] was above 100 µM throughout.

Regarding `C=C1C(=O)O[C@H]2[C@H]1CC/C(COC(=O)NCCc1cccc(OC)c1)=C\CC[C@@]1(C)O[C@@H]21`, the GI50 is 1.61 µM in assay [1] and 1.56 µM in assay [2]. Besides, the TGI in assay [1] was found to be 4.03 µM; in assay [2] it was 3.47 µM.

As for `COc1cc(NC(C)CCCNC(C)C)c2ncccc2c1OC` (stereo not given), in assay [1], the GI50 is 17 µM and the concentration for total growth inhibition (TGI) is above 100 µM. Moreover, in assay [2], the GI50 was above 100 µM and the total growth inhibition concentration (TGI) is above 100 µM.

In the case of `CCn1c(=N)sc2nc3ccccc3n2c1=O`, the TGI in assay [7], in assay [1] and in assay [2] was above 100 µM each time.

Regarding `COc1ccc(-c2nc(N)c(C#N)c3c2CCOc2c-3ccc3ccccc23)cc1`, in assay [1], the GI50 is 22.8 µM and the concentration for total growth inhibition (TGI) is above 100 µM. Moreover, in assay [2], the GI50 is 10.6 µM and the TGI was 33.8 µM.

Turning to `NC(CSC(c1ccccc1)(c1ccccc1)c1ccc(F)cc1)C(=O)O` (stereo not given), the concentration for 50% growth inhibition (GI50) in assay [1] is 0.365 µM; in assay [2] it was 0.326 µM. Moreover, the concentration for total growth inhibition (TGI) in assay [1] was 25.5 µM; in assay [2], 5.5 µM.

With `CCc1nn2ncccc2c1-c1ccnc(NC2CC2)n1`, in assay [1], the GI50 is above 25 µM and the TGI is above 25 µM. Also, in assay [2], the GI50 was above 25 µM and the concentration for total growth inhibition (TGI) was above 25 µM.

As for `COC(=O)N/N=C(\C)C(CN(C)C)C(c1ccccc1)c1c(O)c2ccccc2oc1=O` (stereo not given), the total growth inhibition concentration (TGI) in assay [3], in assay [8], in assay [4] and in assay [5] was above 100 µM in each case.

Regarding `COc1cc(Nc2ncnc(Nc3ccc4c(n3)NC(=O)C(C)(C)O4)n2)cc(OC)c1OC`, in assay [1], the GI50 is 1.18 µM and the TGI was above 100 µM. In assay [2], the GI50 is 1.33 µM and the total growth inhibition concentration (TGI) is above 100 µM.

With `Cc1cccc(Nc2cc(Cl)nc(SCC(=O)O)n2)c1C`, the concentration for total growth inhibition (TGI) in assay [7], in assay [1] and in assay [2] was above 100 µM throughout.

Consider `COc1cccc(NC(=O)c2sc3nc4c(cc3c2N)C(O)CCC4)c1` (stereo not given), for which the GI50 in assay [1] is 0.727 µM; in assay [2], 0.448 µM. In addition, the TGI in assay [1] and in assay [2] was above 100 µM each time.

For `Nc1ccccc1C(=O)NC(=O)Nc1ccc(Oc2ncc(Br)cn2)c(Cl)c1`, the total growth inhibition concentration (TGI) in assay [3] is 23.3 µM; in assay [8], 26.4 µM; in assay [1], above 100 µM; in assay [5], 13.1 µM; in assay [2], 2.76 µM; in assay [6], 36 µM.

In the case of `NC(=S)N/N=C1/CN(c2ccc(Cl)c(Cl)c2)CC(=O)C1c1nc2ccccc2s1` (stereo not given), the TGI in assay [3], in assay [8], in assay [4] and in assay [5] was above 100 µM each time.

Regarding `CC/C(Cc1ccccc1)=C(/c1ccc(O)cc1)c1ccc(OCCN2CCCC2)cc1`, in assay [1], the GI50 is 1.26 µM and the TGI was 3.32 µM. Further, in assay [2], the GI50 is 2.1 µM and the concentration for total growth inhibition (TGI) stood at 4.05 µM.

As to `O=C(Nc1ccc2c(c1)OCCO2)C(=O)c1c[nH]c2ccccc12`, in assay [1], the GI50 was 9.86 µM and the total growth inhibition concentration (TGI) was above 100 µM. In addition, in assay [2], the GI50 is 1.37 µM and the TGI came out at 14.7 µM.

`Nc1ccc(-c2ccc3ncc4ccc(=O)n(-c5cccc(C(F)(F)F)c5)c4c3c2)cn1`: in assay [1], the 50% growth inhibitory concentration (GI50) was below 0.01 µM and the TGI is below 0.01 µM. Moreover, in assay [2], the GI50 is below 0.0141 µM and the TGI turned out to be 2.21 µM.

Regarding `CC(C)(C)c1nc(-c2cccc(NS(=O)(=O)c3c(F)cccc3F)c2F)c(-c2ccnc(N)n2)s1`, in assay [1], the GI50 was 25.9 µM and the TGI was found to be 99 µM. In assay [2], the GI50 was 7.19 µM and the concentration for total growth inhibition (TGI) is above 69.9 µM.

As for `C=C(CN1c2ccccc2Sc2ccccc21)c1ccc(C(=O)Nc2ccccc2N)cc1`, in assay [1], the GI50 was 6.14 µM and the concentration for total growth inhibition (TGI) is above 100 µM. In assay [2], the GI50 is 20.3 µM and the concentration for total growth inhibition (TGI) was above 79.4 µM.

As for `C=C(CO)CC(/C=C(\C)CC/C=C(\C)CCl)OC(C)=O` (stereo not given), the total growth inhibition concentration (TGI) in assay [3], in assay [8], in assay [4] and in assay [5] was above 100 µM each time.
